This is an account of results in ChEMBL document CHEMBL3808372, “Identification of quinones as novel PIM1 kinase inhibitors” (Bioorg Med Chem Lett, 2016).

Assay [1] addresses Serine/threonine-protein kinase pim-1 (Homo sapiens, UniProt P11309). Put plainly: Inhibition of recombinant human Pim1.
Assay [2] is described as follows: Cytotoxicity against human DU145 cells assessed as cell growth inhibition after 72 hrs by Alamar blue assay. Type of assay: functional, cell-based. The following applies: DU-145, 72 h.

As usually defined, the IC50 is the concentration needed to halve the response being measured.

Serine/threonine-protein kinase pim-1, sequence (P11309 whole entry): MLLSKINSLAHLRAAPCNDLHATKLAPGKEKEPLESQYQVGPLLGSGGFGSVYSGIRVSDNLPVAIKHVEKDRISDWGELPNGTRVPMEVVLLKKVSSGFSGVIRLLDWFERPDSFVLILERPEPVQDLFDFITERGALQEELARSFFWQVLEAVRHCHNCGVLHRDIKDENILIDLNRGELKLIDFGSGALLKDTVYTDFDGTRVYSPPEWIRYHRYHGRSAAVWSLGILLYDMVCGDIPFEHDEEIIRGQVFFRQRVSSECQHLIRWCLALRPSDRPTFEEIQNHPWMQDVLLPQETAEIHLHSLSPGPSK

As for `O=Cc1cc(O)c2c(c1O)C(=O)C=CC2=O`, the IC50 in assay [1] was 28 µM.
With `CC(C)C(C)OC1CC(=O)CC2C(=O)c3c(O)ccc(O)c3C(=O)C12` (stereo unspecified), the IC50 in assay [2] is 4.06 µM; in assay [1], 3.6 µM.
Turning to `COc1cccc2c1C(=O)c1c(O)ccc(O)c1C2=O`, the IC50 in assay [1] came out at 11.6 µM.
In the case of `CC(C)(C)OC1CC(O)CC2C(=O)c3c(O)ccc(O)c3C(=O)C12` (stereo unspecified), the IC50 in assay [2] is 3.21 µM; in assay [1] it was 3.5 µM.
In the case of `Cc1cc(O)c2c(c1)C(=O)c1cc(O)cc(O)c1C2=O` [EMODIN], the figures for the IC50 in assay [2] and in assay [1] were 2.02 µM and 2.5 µM, respectively.
As to `O=C1C(CO)=C(CO)C(=O)c2c(O)ccc(O)c21`, the IC50 in assay [1] is 7.4 µM.
`O=C1C=C(CBr)C(=O)c2c(O)ccc(O)c21`: the IC50 in assay [1] was determined as 27 µM.
Consider `Cc1cc(O)c2c(c1)C(=O)C=CC2=O` [RAMENTACEONE], for which, in assay [1], the IC50 came out at 28 µM.
As for `CC(C)(C)OC1CC(=O)CC2C(=O)c3cccc(O)c3C(=O)C12` (stereo unspecified), the IC50 in assay [1] amounted to 23.8 µM.
Regarding `COc1c(O)c(O)c2c(c1O)C(=O)c1cc(C)cc(O)c1C2=O`, the IC50 came out at 3.93 µM in assay [2] and 21.4 µM in assay [1].
With `CC(=O)Oc1ccc(O)c2c1C(=O)C=CC2=O`, the IC50 in assay [1] was determined as 3 µM.
Take `Oc1ccc(O)c2c(O)c3c(O)ccc(O)c3c(O)c12`: the IC50 in assay [1] amounted to 57.1 µM.
